{
  "source": "PubChem BioAssay (NCI)",
  "note": "“And” between values parts separate entries of the source, which are not always exact repeats. Equal values may be shown once.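 Cells were grown in 96-well plates and exposed to each compound for 48 hours at five concentrations; endpoints were interpolated linearly between bracketing concentrations, or set to the highest concentration if not reached. GI50: concentration for 50% inhibition of growth. Definition used: TGI = concentration required for complete inhibition of growth.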",
  "data": [
    {"system": "HCT-116 colon", "assay": "NCI tumour cell line growth inhibition, 48 h", "units": {"TGI": "µM"}, "values": [
      {"molecule": "COc1ccc(C2Cc3cc(OC)c(OC)c(OC)c3C2)cc1", "note": "(stereo unspecified)", "TGI": "> 100"}
    ]},
    {"system": "HL-60(TB) leukemia", "assay": "NCI tumour cell line growth inhibition, 48 h", "units": {"TGI": "µM", "GI50": "µM"}, "values": [
      {"molecule": "CC1(C)OC(=O)C(=C2CCC(C(=O)Nc3cccc(C(F)(F)F)c3)N2)C(=O)O1", "note": "(stereo unspecified)", "TGI": "> 100"},
      {"molecule": "CN(C)CCN1CCc2c([nH]c3ccccc23)C1c1cccnc1", "note": "(stereo unspecified)", "TGI": "> 100"},
      {"molecule": "CCN(c1ccccc1)[C@H]1C(=O)N(c2ccc([N+](=O)[O-])cc2)[C@H]1c1ccc(OC)cc1", "TGI": "> 100"},
      {"molecule": "COc1ccc(C2NC(=S)NC3=C2CCOc2c3ccc3ccccc23)cc1", "note": "(stereo unspecified)", "GI50": 23.4, "TGI": "> 100"},
      {"molecule": "COc1cc(N(C)C)c(OC)cc1C=C1C=CC=C1", "TGI": "> 100"},
      {"molecule": "C[C@H]1CC[P+](C)(c2ccccc2)C1", "note": "(stereo partly specified)", "TGI": "> 100"},
      {"molecule": "C=C1CC[C@H]2C(C)=CC[C@H]3C(=C)C(=O)O[C@@H]3[C@@H]12", "TGI": "> 100"},
      {"molecule": "COc1cc(OC)c2c(=O)c3cccc([N+](=O)[O-])c3n(C)c2c1", "TGI": "> 100"},
      {"molecule": "COc1cccc(/C=N\\NC(=O)C(C)SC(C)C(=O)N/N=C/c2cccc(OC)c2)c1", "note": "(stereo unspecified)", "TGI": "> 100"},
      {"molecule": "O=[N+]([O-])/C=C/c1ccc(Cl)cc1[N+](=O)[O-]", "GI50": 3.23, "TGI": 14.1},
      {"molecule": "O=C(O)c1ccccc1NCn1c(=S)sc2ccccc21", "TGI": 38},
      {"molecule": "CCCCCCCCCCCCCCCC[n+]1ccccc1", "GI50": 0.326, "TGI": 1.21},
      {"molecule": "Cc1cc(C)nc(NS(=O)(=O)c2ccc(Nc3c4ccccc4nc4c(C(=O)NCCN(C)C)cccc34)cc2)n1", "TGI": 4.82},
      {"molecule": "COc1cc2c(c(OC)c1OC)C(=O)NCCC2", "TGI": "> 63.1"},
      {"molecule": "Cc1cc(NN=C(c2ccc(O)cc2)c2ccc(O)cc2)c([N+](=O)[O-])cc1[N+](=O)[O-]", "GI50": 2.09, "TGI": 34.8},
      {"molecule": "COc1ccc(-c2c(N)noc2-c2cc(OC)c3c(c2)OCCO3)cc1", "GI50": 0.0102, "TGI": 0.0434},
      {"molecule": "Nc1ccccc1C#Cc1ccccc1C#Cc1cccs1", "GI50": 11, "TGI": "> 100"},
      {"molecule": "COc1ccc(-c2cc(/C=C/C(=O)c3ccc(N)cc3)[nH]n2)cc1", "GI50": 1.43, "TGI": 7.71},
      {"molecule": "O=C1CCC(=O)N1Sc1ccccc1", "TGI": "> 100"},
      {"molecule": "OCC(O)C(O)C(O)C(O)c1nnc2c(-c3ccccc3)nc3ccccc3n12", "note": "(stereo unspecified)", "GI50": "> 100", "TGI": "> 100"},
      {"molecule": "O=C(/C=C/c1ccccc1O)c1ccccc1Cl", "TGI": 63.8},
      {"molecule": "CCCCC1(C(NC(=O)c2ccccc2Cl)c2ccncc2)C(=O)N(c2ccccc2)N(c2ccccc2)C1=O", "note": "(stereo unspecified)", "TGI": 40.8},
      {"molecule": "COc1ccc(/C=N/NS(=O)(=O)c2ccccc2)cc1", "TGI": "> 100"},
      {"molecule": "C1=CC2CCC1CN2CCC1CNc2ccccc21", "note": "(stereo unspecified)", "TGI": "> 100"},
      {"molecule": "Cc1ccc(OC(=O)N2C/C(=C\\c3ccccc3)C(=O)/C(=C/c3ccccc3)C2)cc1", "TGI": 15.6},
      {"molecule": "O=C1C(=O)C2(CC1S(=O)(=O)c1ccccc1)c1ccccc1-c1ccccc12", "note": "(stereo unspecified)", "TGI": 58},
      {"molecule": "O=c1oc2c3ccc4ccccc4c3n(CCN3CCCCC3)c2c2ccccc12", "TGI": "> 100"},
      {"molecule": "CN1CCc2ccccc2C(C(=O)c2ccc3c(c2)OCO3)C1=O", "note": "(stereo unspecified)", "TGI": "> 100"},
      {"molecule": "Cc1cc(Cl)ccc1NC(=O)C1C(=O)N(c2ccc(Cl)cc2C)C(=O)/C1=N\\NC(N)=S", "note": "(stereo unspecified)", "TGI": 51.8},
      {"molecule": "COc1ccc(C2=Nn3c(nnc3-n3nc(C)cc3C)SC2)cc1", "GI50": 0.0358, "TGI": 0.482},
      {"molecule": "COc1ccc(Br)c(C(=O)N2CCc3ccccc32)c1N", "TGI": "> 100"},
      {"molecule": "COc1ccc(C)cc1NC(=S)C#N", "TGI": "> 100"},
      {"molecule": "Cc1ccc2ccc(-c3ccccc3)c3c2c1C(=O)c1ccccc1C3=O", "TGI": "> 100"},
      {"molecule": "OCC(O)C(O)C(O)c1nn(-c2ccc(F)cc2)c2nc3cc(Cl)c(Cl)cc3nc12", "note": "(stereo unspecified)", "TGI": "> 100"}
    ]},
    {"system": "HS 578T breast", "assay": "NCI tumour cell line growth inhibition, 48 h", "values": [
      {"molecule": "CN(C)c1ccc(C(O)C2=CC(=O)c3ccccc3C2=O)cc1", "note": "(stereo unspecified)", "GI50": "0.509 µM", "TGI": "> 100 µM"},
      {"molecule": "Clc1ccc(CN2CCCN(Cc3ccc(Cl)cc3)C2c2cc3ccccc3c3ccccc23)cc1", "TGI": "> 100 µM"},
      {"molecule": "COc1ccc(C2NC(=S)NC3=C2CCOc2c3ccc3ccccc23)cc1", "note": "(stereo unspecified)", "GI50": "47.4 µM", "TGI": "> 100 µM"},
      {"molecule": "COc1cc(N(C)C)c(OC)cc1C=C1C=CC=C1", "TGI": "> 100 µM"},
      {"molecule": "O=[N+]([O-])/C=C/c1ccc(Cl)cc1[N+](=O)[O-]", "GI50": "8.16 µM", "TGI": "> 100 µM"},
      {"molecule": "O=C(O)c1ccccc1NCn1c(=S)sc2ccccc21", "TGI": "> 100 µM"},
      {"molecule": "CCCCCCCCCCCCCCCC[n+]1ccccc1", "GI50": "1.46 µM and 1.67 µM", "TGI": "4.64 µM and 4.84 µM"},
      {"molecule": "Cc1cc(NN=C(c2ccc(O)cc2)c2ccc(O)cc2)c([N+](=O)[O-])cc1[N+](=O)[O-]", "GI50": "5.04 µM", "TGI": "39.8 µM"},
      {"molecule": "COc1ccc(-c2c(N)noc2-c2cc(OC)c3c(c2)OCCO3)cc1", "GI50": "< 0.0106 µM", "TGI": "> 100 µM"},
      {"molecule": "COc1ccc(-c2cc(/C=C/C(=O)c3ccc(N)cc3)[nH]n2)cc1", "GI50": "4.04 µM", "TGI": "24.4 µM"},
      {"molecule": "CCOC(=O)c1c(NC(=O)c2ccc(Cl)cc2)sc2c(CN(C)C)c(O)ccc12", "GI50": "4.06 µM", "TGI": "26.5 µM"},
      {"molecule": "OCC(O)C(O)C(O)C(O)c1nnc2c(-c3ccccc3)nc3ccccc3n12", "note": "(stereo unspecified)", "GI50": "57.9 µM", "TGI": "> 100 µM"},
      {"molecule": "Cc1ccc(OC(=O)N2C/C(=C\\c3ccccc3)C(=O)/C(=C/c3ccccc3)C2)cc1", "TGI": "76.5 µM"},
      {"molecule": "O=c1cccc(Cl)[nH]1", "TGI": "> 100 µM"},
      {"molecule": "OCCN(CO)CO", "TGI": "> 100 µM"},
      {"molecule": "COc1ccc(C2=Nn3c(nnc3-n3nc(C)cc3C)SC2)cc1", "TGI": "> 100 µM"},
      {"molecule": "CSC1=Nc2c(c(C)c(-c3ccccc3)n2COC(CO)CO)C2=NC(=O)CC(C)N12", "note": "(stereo unspecified)", "GI50": "> 100 µM", "TGI": "> 100 µM"}
    ]},
    {"system": "LOX IMVI melanoma", "assay": "NCI tumour cell line growth inhibition, 48 h", "units": {"TGI": "µM", "GI50": "µM"}, "values": [
      {"molecule": "CC1(C)OC(=O)C(=C2CCC(C(=O)Nc3cccc(C(F)(F)F)c3)N2)C(=O)O1", "note": "(stereo unspecified)", "TGI": "> 100"},
      {"molecule": "Clc1ccc(CN2CCCN(Cc3ccc(Cl)cc3)C2c2cc3ccccc3c3ccccc23)cc1", "TGI": "> 100"},
      {"molecule": "COc1ccc(C2NC(=S)NC3=C2CCOc2c3ccc3ccccc23)cc1", "note": "(stereo unspecified)", "GI50": "> 100", "TGI": "> 100"},
      {"molecule": "C[C@H]1CC[P+](C)(c2ccccc2)C1", "note": "(stereo partly specified)", "TGI": "> 100"},
      {"molecule": "C=C1CC[C@H]2C(C)=CC[C@H]3C(=C)C(=O)O[C@@H]3[C@@H]12", "TGI": "> 100"},
      {"molecule": "COc1cc(OC)c2c(=O)c3cccc([N+](=O)[O-])c3n(C)c2c1", "TGI": "> 100"},
      {"molecule": "O=C(O)c1ccccc1NCn1c(=S)sc2ccccc21", "TGI": 43.4},
      {"molecule": "CCCCCCCCCCCCCCCC[n+]1ccccc1", "GI50": 0.242, "TGI": 1.09},
      {"molecule": "Cc1cc(C)nc(NS(=O)(=O)c2ccc(Nc3c4ccccc4nc4c(C(=O)NCCN(C)C)cccc34)cc2)n1", "TGI": 11.7},
      {"molecule": "COc1cc2c(c(OC)c1OC)C(=O)NCCC2", "TGI": "> 100"},
      {"molecule": "Cc1cc(NN=C(c2ccc(O)cc2)c2ccc(O)cc2)c([N+](=O)[O-])cc1[N+](=O)[O-]", "GI50": 3.8, "TGI": 21.2},
      {"molecule": "COc1ccc(-c2c(N)noc2-c2cc(OC)c3c(c2)OCCO3)cc1", "GI50": 0.0451, "TGI": 24},
      {"molecule": "Nc1ccccc1C#Cc1ccccc1C#Cc1cccs1", "GI50": 14, "TGI": 27.5},
      {"molecule": "O=C1CCC(=O)N1Sc1ccccc1", "TGI": "> 100"},
      {"molecule": "CCOC(=O)c1c(NC(=O)c2ccc(Cl)cc2)sc2c(CN(C)C)c(O)ccc12", "GI50": 4.73, "TGI": 18.5},
      {"molecule": "OCC(O)C(O)C(O)C(O)c1nnc2c(-c3ccccc3)nc3ccccc3n12", "note": "(stereo unspecified)", "GI50": 51.5, "TGI": "> 100"},
      {"molecule": "O=C(/C=C/c1ccccc1O)c1ccccc1Cl", "TGI": 73.6},
      {"molecule": "CCCCC1(C(NC(=O)c2ccccc2Cl)c2ccncc2)C(=O)N(c2ccccc2)N(c2ccccc2)C1=O", "note": "(stereo unspecified)", "TGI": "> 100"},
      {"molecule": "N#Cc1cc(S(=O)(=O)Nc2nc3cc(Cl)ccc3o2)c(SCc2ccccc2)cc1Cl", "GI50": 13.5, "TGI": 26.3},
      {"molecule": "COc1ccc(/C=N/NS(=O)(=O)c2ccccc2)cc1", "TGI": "> 100"},
      {"molecule": "C1=CC2CCC1CN2CCC1CNc2ccccc21", "note": "(stereo unspecified)", "TGI": "> 100"},
      {"molecule": "Cc1ccc(OC(=O)N2C/C(=C\\c3ccccc3)C(=O)/C(=C/c3ccccc3)C2)cc1", "TGI": 9.71},
      {"molecule": "O=C1C(=O)C2(CC1S(=O)(=O)c1ccccc1)c1ccccc1-c1ccccc12", "note": "(stereo unspecified)", "TGI": 34.5},
      {"molecule": "O=c1oc2c3ccc4ccccc4c3n(CCN3CCCCC3)c2c2ccccc12", "TGI": "> 100"},
      {"molecule": "O=c1cccc(Cl)[nH]1", "TGI": "> 100"},
      {"molecule": "Cc1ccc(S(=O)C(C)C(Cl)c2ccccc2)cc1", "note": "(stereo unspecified)", "TGI": "> 100"},
      {"molecule": "CN1CCc2ccccc2C(C(=O)c2ccc3c(c2)OCO3)C1=O", "note": "(stereo unspecified)", "TGI": "> 100"}
    ]}
  ]
}
